In one experiment the target is T1, hDcn1^P (Homo sapiens, UniProt Q96GG9).
T1 construct: hDcn1^P corresponds to residues 62 to the C-terminal residue 259 of hDcn1; GST (cleaved yes); made in house; host or cells: E. coli BL21(DE3)Gold
Description: ITC binding of Ubc12/Ube2f peptides to hDcn1^P. As to conditions: Table 29, peptides with amidated carboxy-terminus, read-out: Binding Kd for hDcn1^P. As to the method:
(§1) Protein samples were buffer matched by desalting over a NAP-5 column (GE Healthcare) into 50 mM Hepes, 125 mM NaCl, 1 mM BME, pH 7.0 (ITC buffer). Peptides were dissolved by weight to a final concentration of 10 mM in ITC buffer and diluted further in ITC buffer as required for the experiments. Measurements were performed using a MicroCal ITC200. hDcn1^P or yDcn1^P were placed into the sample cell at a final concentration of 400 μM at 18° C. The peptide ligands (4 mM) were constantly injected (1.5 μl). The interval time between each injection was 3 minutes and the duration of each injection was 3 seconds. For titrations involving hE1 and yE1, proteins were placed into the sample cell at a final concentration of 25 μM at 22° C. Peptide ligands (250 μM) were constantly injected (2.5 μl). The interval time between each injection was three minutes and the duration of each injection was 5 seconds. For hCul1^ctd-Rbx1:hDcn1^P binding, proteins were buffer matched by desalting over a NAP-5 column in 25 mM Tris, 0.1 M NaCl, 1 mM BME, pH 7.6. hCul1^ctd-Rbx1 was placed into the sample cell at a final concentration of 55 μM at 22° C. hDcn1^P (550 μM) was constantly injected (2.5 μl). The interval time between each injection was 3 minutes and the duration of each injection was 5 seconds. Obtained spectra were evaluated using Origin (V 7.0) to determine heats of binding and Kd values.
(§2) The affinity of various peptides for hDcn1^P, hDcn2^P, hDcn3^P, hDcn4^P, and hDcn5^P was tested using isothermal titration calorimetry as described in Example 1 and is provided in Table 29.

Another experiment concerns the target T2, hDcn2^P (Homo sapiens, UniProt Q6PH85).
T2 construct: human Dcn1 family members 1-5 (also called DCUND1-DCUND5)
In words: ITC binding of peptides to hDcn2^P. As to conditions: Table 29, peptides with amidated carboxy-terminus. The protocol:
as §1, §2

For another experiment, the target named is T3, hDcn4^P (Homo sapiens, UniProt Q92564).
T3 sequence (Q92564 102-292): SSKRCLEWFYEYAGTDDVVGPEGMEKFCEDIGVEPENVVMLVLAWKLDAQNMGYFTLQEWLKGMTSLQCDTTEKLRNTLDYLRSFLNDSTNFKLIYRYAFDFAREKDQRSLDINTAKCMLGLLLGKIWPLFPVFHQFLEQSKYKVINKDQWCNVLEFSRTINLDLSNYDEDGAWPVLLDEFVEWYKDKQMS
In words: ITC binding of peptides to hDcn4^P. As to conditions: Table 29, peptides with amidated carboxy-terminus. As to the method:
as §1, with “values. […]” for “values.”

The next experiment addresses T4, hDcn5^P (Homo sapiens, UniProt Q9BTE7).
T4 construct: human Dcn1 family members 1-5 (also called DCUND1-DCUND5)
T4 sequence (Q9BTE7 47-237): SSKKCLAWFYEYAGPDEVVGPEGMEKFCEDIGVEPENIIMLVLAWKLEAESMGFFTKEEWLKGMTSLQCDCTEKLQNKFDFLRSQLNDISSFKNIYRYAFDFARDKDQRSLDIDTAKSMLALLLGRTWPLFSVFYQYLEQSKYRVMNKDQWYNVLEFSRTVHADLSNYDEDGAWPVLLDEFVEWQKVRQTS
Description: ITC binding of peptides to hDcn5^P. As to conditions: Table 29, peptides with amidated carboxy-terminus. The protocol:
as §1, with “values. […]” for “values.”

The target in experiment [1] is hCul1^ctd-hRbx1. In words: ITC hDcn1^P binding to hCul1^ctd-hRbx1. As to conditions: human versus yeast Kd. The protocol:
as §1

Experiment [2] relates to hCul1^ctd-hRbx1. In words: Pulse-chase assay of [32P]~hNedd8 transfer from hUbc12 to hCul1-hRbx1 with or without hDcn1^P. It counts as biochemical, human. As to conditions: FIG. 3. The protocol: Dcn1^P-mediated co-E3 activity was monitored using pulse-chase assays to exclusively monitor effects of acetylation on Nedd8 transfer to Cul1 without sensing earlier steps in the reaction. For the “pulse”, 10 μM of the indicated versions of yUbc12 were charged with [^32P]-yNedd8 (also referred to as [^32P]-Rub1) as described previously (Scott et al. (2010) Mol Cell 39(5):784-796), resulting in formation of a thiolester-linked yUbc12-[^32P]-yNedd8 intermediate. 10 μM of the indicated versions of hUbc12 were charged similarly with [^32P]-hNedd8, for 15 minutes at room temperature using 0.1 μM hE1, 15 μM [^32P]-hNedd8, in 50 mM Hepes, 100 mM NaCl, 1.25 mM ATP, 2.5 mM MgCl2, pH 7.5. Formation of a yUbc12-[^32P]-yNedd8 or hUbc12-[^32P]-hNedd8 intermediate was quenched with 50 mM EDTA on ice for 5 minutes. Other than in FIG. 3, where additional details are provided, chase reactions with hUbc12 and yUbc12 variants involved dilution of the Ubc12-[^32P]-Nedd8 thioester conjugate to 40 nM in 50 mM BisTris, 100 mM NaCl, 50 mM EDTA, 0.5 mg/ml BSA, pH 6.7. Chase reactions were initiated at 0° C. by the addition of hCul1^ctd-hRbx1, yCul1^C+-yRbx1, hDcn1^P-hCul1^ctd-hRbx1, or yDcn1^P-yCul1^C+-yRbx1 at a final concentration of 125 nM. Aliquots were removed at the indicated times and quenched with 2×SDS-PAGE sample buffer. […]

The next experiment deals with yCul1^C+-yRbx1. As to conditions: yeast counterparts; read-out: Kd yCul1^C+-yRbx1:yDcn1^P; cited from earlier work.
Sequence of yCul1^C+-yRbx1 (Q12018 427-815 limits assumed): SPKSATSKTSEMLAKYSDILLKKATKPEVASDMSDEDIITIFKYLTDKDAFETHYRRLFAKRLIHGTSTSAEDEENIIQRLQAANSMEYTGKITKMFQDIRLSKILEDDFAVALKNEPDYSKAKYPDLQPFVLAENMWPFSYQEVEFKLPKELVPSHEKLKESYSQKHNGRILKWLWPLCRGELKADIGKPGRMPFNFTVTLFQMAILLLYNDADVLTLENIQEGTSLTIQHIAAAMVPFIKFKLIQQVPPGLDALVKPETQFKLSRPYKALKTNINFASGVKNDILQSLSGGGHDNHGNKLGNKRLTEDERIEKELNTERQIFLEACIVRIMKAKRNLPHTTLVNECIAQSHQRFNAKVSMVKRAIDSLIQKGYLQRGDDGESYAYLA
Sequence of yCul1^C+-yRbx1 (Q08273 32-121 limits assumed, further chain): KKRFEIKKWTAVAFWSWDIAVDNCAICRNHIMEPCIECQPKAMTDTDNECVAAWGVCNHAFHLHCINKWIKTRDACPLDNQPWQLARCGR

T2 sequence (Q6PH85 62-259): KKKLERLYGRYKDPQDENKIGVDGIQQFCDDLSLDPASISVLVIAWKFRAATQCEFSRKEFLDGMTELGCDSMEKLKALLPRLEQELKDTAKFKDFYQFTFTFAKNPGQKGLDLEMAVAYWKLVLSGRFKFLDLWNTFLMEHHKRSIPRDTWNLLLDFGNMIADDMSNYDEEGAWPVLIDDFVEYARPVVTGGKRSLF
T1 sequence (Q96GG9 62-259): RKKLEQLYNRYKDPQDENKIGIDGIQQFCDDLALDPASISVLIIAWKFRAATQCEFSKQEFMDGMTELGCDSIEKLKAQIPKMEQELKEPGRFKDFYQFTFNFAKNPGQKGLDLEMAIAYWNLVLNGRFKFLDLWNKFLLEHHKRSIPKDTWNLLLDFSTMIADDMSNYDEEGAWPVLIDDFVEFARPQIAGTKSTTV

Regarding “Ac-MLTLASKLKRDDGLKGSRTAATASD-NH2 [hUbe2f^Ac1−25]”, the Kd on hDcn1^P is more than 500 µM; on hDcn2^P it was more than 400 µM; on hDcn4^P it was more than 40 µM; at hDcn5^P, more than 30 µM.
For “hDcn1^P: residues 62 to 259 of hDcn1 (SCCRO, DCUN1D1), the potentiating neddylation domain”, at hCul1^ctd-hRbx1 [1], the “Kd of human proteins relative to yeast counterparts (fold worse)” value is reported as “approximately 30 fold”.

B1: CAND1: protein inhibitor of Cul1 neddylation, expressed in E. coli (protein, UniProt Q86VP6 2-1230, looked up)
Cullin-associated …: ASASYHISNLLEKMTSSDKDFRFMATNDLMTELQKDSIKLDDDSERKVVKMILKLLEDKNGEVQNLAVKCLGPLVSKVKEYQVETIVDTLCTNMLSDKEQLRDISSIGLKTVIGELPPASSGSALAANVCKKITGRLTSAIAKQEDVSVQLEALDIMADMLSRQGGLLVNFHPSILTCLLPQLTSPRLAVRKRTIIALGHLVMSCGNIVFVDLIEHLLSELSKNDSMSTTRTYIQCIAAISRQAGHRIGEYLEKIIPLVVKFCNVDDDELREYCIQAFESFVRRCPKEVYPHVSTIINICLKYLTYDPNYNYDDEDEDENAMDADGGDDDDQGSDDEYSDDDDMSWKVRRAAAKCLDAVVSTRHEMLPEFYKTVSPALISRFKEREENVKADVFHAYLSLLKQTRPVQSWLCDPDAMEQGETPLTMLQSQVPNIVKALHKQMKEKSVKTRQCCFNMLTELVNVLPGALTQHIPVLVPGIIFSLNDKSSSSNLKIDALSCLYVILCNHSPQVFHPHVQALVPPVVACVGDPFYKITSEALLVTQQLVKVIRPLDQPSSFDATPYIKDLFTCTIKRLKAADIDQEVKERAISCMGQIICNLGDNLGSDLPNTLQIFLERLKNEITRLTTVKALTLIAGSPLKIDLRPVLGEGVPILASFLRKNQRALKLGTLSALDILIKNYSDSLTAAMIDAVLDELPPLISESDMHVSQMAISFLTTLAKVYPSSLSKISGSILNELIGLVRSPLLQGGALSAMLDFFQALVVTGTNNLGYMDLLRMLTGPVYSQSTALTHKQSYYSIAKCVAALTRACPKEGPAVVGQFIQDVKNSRSTDSIRLLALLSLGEVGHHIDLSGQLELKSVILEAFSSPSEEVKSAASYALGSISVGNLPEYLPFVLQEITSQPKRQYLLLHSLKEIISSASVVGLKPYVENIWALLLKHCECAEEGTRNVVAECLGKLTLIDPETLLPRLKGYLISGSSYARSSVVTAVKFTISDHPQPIDPLLKNCIGDFLKTLEDPDLNVRRVALVTFNSAAHNKPSLIRDLLDTVLPHLYNETKVRKELIREVEMGPFKHTVDDGLDIRKAAFECMYTLLDSCLDRLDIFEFLNHVEDGLKDHYDIKMLTFLMLVRLSTLCPSAVLQRLDRLVEPLRATCTTKVKANSVKQEFEKQDELKRSAMRAVAALLTIPEAEKSPLMSEFQSQISSNPELAAIFESIQKDSSSTNLESMDTS
In the case of B1, the “Cul1 neddylation in the presence of Dcn1^P and Ubc12 N-terminal acetylation” value in the experiment with hCul1^ctd-hRbx1 [2] is “blocked”.

B2: yDcn1^P: PONY domain of S. cerevisiae Dcn1 (protein)
chain: VYPKELTQVFEHYINNNLFDIDSLVKFIEELGYNLEDLATLCLAHLLGYKKLEEPLKREDFLSTWFMQGCSTISDMQECIKTLDVKLHEDLQYFTQIYNYAFNLILDPNRKDIDTDEGIQYWKLFFQPEYPVRMEPDLLEAWFRFLRDEGKTTISKDTWRMLLLFFKRYPTIQKIISDYDETAAWPFIIDEFYECLQDQQ
Regarding B2, at yCul1^C+-yRbx1, the Kd was 0.028 µM.

The values are drawn from US9447156B2, “Methods and compositions for inhibiting neddylation of proteins” (St. Jude Children's Research Hospital, priority 2011, dated 2016).
